This is an account of results in US7074804B2, “CCI-779 Isomer C” (Wyeth, priority 2003, dated 2006).

Converted amounts (≈) assume the structure as drawn. Read-outs that look alike come from different tables or passages of the source.

For one data set, the system named is Candida lusitaniae. The data set is described as follows: Antifungal activity, microtiter broth dilution MIC. Format: cell-based. As to conditions: Candida lusitaniae strain 94-3, RPMI 1640, 35° C., 24–48 h. Here is the method: (§1) Antifungal activity for CCI-779 Isomer C was established by evaluating it against several strains of fungi. Briefly the following procedure was used to evaluate such activity. A 96 well microtiter plate was filled (50 μL/well) with RPMI 1640. The compounds to be evaluated were placed in appropriate wells and serial diluted in successive wells to provide several dilutions. The concentration ranged from […]. An adjusted inoculum of fungi (50 μL) was added to each well and plates were incubated at 35° C. for 24–48 h.
Background: Dilution methods test growth across graded concentrations, often in twofold steps.

The subject of a further data set is Candida albicans. The experiment in a line: Antifungal activity, microtiter broth dilution MIC. Format: cell-based. As to conditions: RPMI 1640, 35° C., 24–48 h. The protocol:
as §1

For a further data set, the system named is Aspergillus fumigatus. The data set is described as follows: Antifungal activity, microtiter broth dilution MIC. Format: cell-based. As to conditions: Aspergillus fumigatus strain ATCC 26933, RPMI 1640, 35° C., 24–48 h. The protocol: as §1
A further data set relates to Candida parapsilosis. The data set is described as follows: Antifungal activity, microtiter broth dilution MIC. It is filed as cell-based. As to conditions: RPMI 1640, 35° C., 24–48 h. Here is the method:
as §1

Another data set deals with Aspergillus niger. The experiment in a line: Antifungal activity, microtiter broth dilution MIC. Format: cell-based. To be noted: RPMI 1640, 35° C., 24–48 h. Here is the method:
as §1

The next data set concerns Candida rugosa. The experiment in a line: Antifungal activity, microtiter broth dilution MIC. It is filed as cell-based. As to conditions: Candida rugosa strain 94-10, RPMI 1640, 35° C., 24–48 h. Here is the method:
as §1

In the next data set the test system is Candida tropicalis. The experiment in a line: Antifungal activity, microtiter broth dilution MIC. To be noted: RPMI 1640, 35° C., 24–48 h. Format: cell-based. The protocol:
as §1

A further data set concerns Candida krussii. The data set is described as follows: Antifungal activity, microtiter broth dilution MIC. Format: cell-based. To be noted: Candida krussii strain 94-2, RPMI 1640, 35° C., 24–48 h. The protocol:
as §1

A further data set relates to Candida pseudotropicalis. The experiment in a line: Antifungal activity, microtiter broth dilution MIC. It is filed as cell-based. As to conditions: Candida pseudotropicalis strain ATCC 28838, RPMI 1640, 35° C., 24–48 h. Here is the method:
as §1

Data set [1] has as its system histologically diverse tumor cells. As to conditions: cited from earlier work.
A further data set relates to human tumor xenografts. As to conditions: nude mice, diverse histological types; cited from earlier work.
The nature of data set [2]: Stability of CCI-779 Isomer C (solid form, aqueous suspension, formulation). Format: physicochemical.
The mark [3] stands for this setting: Candida albicans strain ATCC 90028.
[4] abbreviates: Candida parapsilosis strain 94-8.
Where [5] appears, read: Candida parapsilosis strain 94-9.
Setting [6] is: Candida parapsilosis strain ATCC 90018.
Where [7] appears, read: Candida tropicalis strain 94-13.
The mark [8] stands for this setting: Candida tropicalis strain 94-14.

In general, MIC refers to the lowest concentration found to suppress growth. In the case of `C[C@@H]1[C@H](O)[C@@H](C)/C=C/C=C/CC/C=C/C=C/C=C/C=C/C(O[C@H]2O[C@H](C)[C@@H](O)[C@H](N)[C@@H]2O)CC2O[C@](O)(CC(O)C(O)CCC(O)CC(O)CC(O)CC(=O)O[C@H]1C)CC(O)C2C(=O)O` (stereo partly drawn) [Nystatin], the MIC in the data set on Candida lusitaniae was 1 µg/mL (≈ 1.08 µM); with Candida albicans (Candida albicans strain 1063), 1 µg/mL (≈ 1.08 µM); in the data set on Candida albicans (Candida albicans strain 1117), 1 µg/mL (≈ 1.08 µM); in the data set with Candida albicans (setting [3]) it was 1 µg/mL (≈ 1.08 µM); in the data set on Aspergillus fumigatus, 2 µg/mL (≈ 2.16 µM); in the data set with Candida parapsilosis (setting [4]), 2 µg/mL (≈ 2.16 µM). For the same molecule, the MIC was 1 µg/mL (≈ 1.08 µM) with Candida parapsilosis (setting [5]); 2 µg/mL (≈ 2.16 µM) in the data set on Candida parapsilosis (setting [6]); 2 µg/mL (≈ 2.16 µM) against Aspergillus niger (Aspergillus niger strain S399); 1 µg/mL (≈ 1.08 µM) against Aspergillus niger (Aspergillus niger strain S430); 1 µg/mL (≈ 1.08 µM) in the data set on Candida rugosa; 1 µg/mL (≈ 1.08 µM) against Candida tropicalis (setting [7]). In addition, the minimum inhibitory concentration (MIC) in the data set on Candida tropicalis (setting [8]), with Candida krussii and with Candida pseudotropicalis was 1 µg/mL (≈ 1.08 µM) in each case.

`CO[C@H]1C[C@@H]2CC[C@@H](C)[C@@](O)(O2)C(=O)C(=O)N2CCCC[C@H]2C(=O)O[C@H]([C@H](C)C[C@@H]2CC[C@@H](OC(=O)C(C)(CO)CO)[C@H](OC)C2)CC(=O)[C@H](C)/C=C(\C)[C@@H](O)[C@@H](OC)C(=O)[C@H](C)C[C@H](C)/C=C/C=C/C=C/1C` (single isomer, unassigned) [CCI-779, Rapamycin 42-ester with 3-hydroxy-2-(hydroxymethyl)-2-methylpropionic acid]: in data set [1] (CNS cancer, leukemia (T-cell), breast, prostate, melanoma lines most sensitive), the “growth of tumor cells in vitro” value is recorded as “inhibit the growth”. Also, the cell cycle effect result in data set [1] (in vitro) is “arrested cells in the G1 phase of the cell cycle”. Besides, the “activity against human tumor xenografts” value in the data set on human tumor xenografts is reported as “has activity”.

For `CO[C@H]1C[C@@H]2CC[C@@H](C)C(=O)C(O)(O2)C(=O)N2CCCC[C@H]2C(=O)O[C@H]([C@H](C)C[C@@H]2CC[C@@H](OC(=O)C(C)(CO)CO)[C@H](OC)C2)CC(=O)[C@H](C)/C=C(\C)[C@@H](O)[C@@H](OC)C(=O)[C@H](C)C[C@H](C)/C=C/C=C/C=C/1C` (single isomer, unassigned) [CCI-779 Isomer C], the “stability with citric acid” value in [2] (citric acid at a concentration of less than 0.01% w/v in formulation) is “enhanced the stability”. For the same molecule, the “stability under storage conditions” value in data set [2] (formulated in solid form) is on record as “stable under storage conditions for extended periods of time”. Further, the stability result in data set [2] (in an aqueous suspension) is given as “stable”. Further, the minimal inhibitory concentration (MIC) in the data set on Candida lusitaniae (Clavispora lusitaniae, read-out: MIC) is 8 µg/mL (≈ 7.76 µM); with Candida albicans (ATCC90028, Candida albicans strain ATCC 90028, read-out: MIC), 4 µg/mL (≈ 3.88 µM); with Candida albicans (Candida albicans strain 1063, read-out: MIC) it was 4 µg/mL (≈ 3.88 µM); against Candida albicans (Candida albicans strain 1117) it was 4 µg/mL (≈ 3.88 µM); in the data set with Aspergillus fumigatus (ATCC26933, read-out: MIC), more than 32 µg/mL; with Candida parapsilosis (setting [5]), 4 µg/mL (≈ 3.88 µM). The MIC in the data set with Candida parapsilosis (Lodderomyces parapsilosis, ATCC90018, Candida parapsilosis strain ATCC 90018, read-out: MIC) is 4 µg/mL (≈ 3.88 µM); with Candida parapsilosis (Lodderomyces parapsilosis, Candida parapsilosis strain 94-8, read-out: MIC) it was 4 µg/mL (≈ 3.88 µM); in the data set with Aspergillus niger (Aspergillus niger strain S399) it was 32 µg/mL (≈ 31.1 µM); in the data set on Aspergillus niger (Aspergillus niger strain S430, read-out: MIC), 32 µg/mL (≈ 31.1 µM); in the data set with Candida rugosa (Diutina rugosa, read-out: MIC), 16 µg/mL (≈ 15.5 µM); with Candida tropicalis (setting [7]) it was 4 µg/mL (≈ 3.88 µM). The MIC in the data set on Candida tropicalis (Candida tropicalis strain 94-14, read-out: MIC) was 4 µg/mL (≈ 3.88 µM); in the data set on Candida krussii (read-out: MIC), 4 µg/mL (≈ 3.88 µM); with Candida pseudotropicalis (Kluyveromyces marxianus, ATCC28838, read-out: MIC) it was 4 µg/mL (≈ 3.88 µM).

`C[C@@H]1[C@H](O)[C@@H](C)/C=C/C=C/C=C/C=C/C=C/C=C/C=C/[C@H](O[C@@H]2O[C@H](C)[C@@H](O)[C@H](N)[C@@H]2O)C[C@@H]2O[C@](O)(C[C@@H](O)C[C@@H](O)[C@H](O)CC[C@@H](O)C[C@@H](O)CC(=O)O[C@H]1C)C[C@H](O)[C@H]2C(=O)O` [Amphotericin B]: the minimal inhibitory concentration (MIC) entry in the data set with Candida lusitaniae is “≦0.06 μg/mL”; in the data set on Candida albicans (Candida albicans strain 1063) it was “≦0.06 μg/mL”; with Candida albicans (Candida albicans strain 1117), 0.12 µg/mL (≈ 0.13 µM); in the data set on Candida albicans (setting [3]), 0.12 µg/mL (≈ 0.13 µM); in the data set on Aspergillus fumigatus, 0.25 µg/mL (≈ 0.271 µM); in the data set on Candida parapsilosis (setting [4]), “≦0.06 μg/mL”. Besides, the minimal inhibitory concentration (MIC) in the data set on Candida parapsilosis (setting [5]) is 0.12 µg/mL (≈ 0.13 µM); with Candida parapsilosis (setting [6]) it was “≦0.06 μg/mL”; in the data set on Aspergillus niger (Aspergillus niger strain S399), 0.50 µg/mL (≈ 0.541 µM); against Aspergillus niger (Aspergillus niger strain S430) it was 0.25 µg/mL (≈ 0.271 µM); in the data set on Candida rugosa it was 0.25 µg/mL (≈ 0.271 µM); in the data set on Candida tropicalis (setting [7]), “≦0.06 μg/mL”. Moreover, the values for the MIC result with Candida tropicalis (setting [8]), with Candida krussii and in the data set with Candida pseudotropicalis were “≦0.06 μg/mL”, 0.12 µg/mL (≈ 0.13 µM) and “≦0.06 μg/mL”, respectively.
